These are literature values, as cited in US9290518B2, “Water soluble metal-organic frameworks (MOFs)” (Council of Scientific and Industrial Research, priority 2011, dated 2016).

The conditions of this data set: 25° C., 98% RH, literature.

As to `O=C1N2CN3C(=O)N4CN5C(=O)N6CN7C(=O)N8CN9C(=O)N%10CN%11C(=O)N%12CN1C1C2N2CN%13C(=O)N(CN%14C(=O)N(CN%15C(=O)N(CN%16C(=O)N(CN%17C(=O)N(CN1C2=O)C%12C%11%17)C%10C9%16)C8C7%15)C6C5%14)C4C3%13` (stereo not shown) [cucurbit [6]uril], the proton conductivity is given as 1.1×10^−3 S cm^−1.
